EP0799218B1, “DIARYL-2-(5H)-FURANONES AS COX-2 INHIBITORS” (Merck Frosst Canada & Co., priority 1994, dated 1996)

Experiments:
Cox-2 = target: T1, Cox-2 (Homo sapiens, UniProt P35354); test: Human whole blood assay, Cox-2 (LPS-induced PGE2 production); assay type: cell-based; details: LPS 100 µg/ml, 24 hours at 37 °C, PGE2 by radioimmunoassay, read-out: HWB Cox-2 IC50
T1 construct: endogenous in cells; host or cells: fresh heparinized human whole blood from volunteers, stimulated with LPS
T1 sequence (P35354 18-604 limits assumed): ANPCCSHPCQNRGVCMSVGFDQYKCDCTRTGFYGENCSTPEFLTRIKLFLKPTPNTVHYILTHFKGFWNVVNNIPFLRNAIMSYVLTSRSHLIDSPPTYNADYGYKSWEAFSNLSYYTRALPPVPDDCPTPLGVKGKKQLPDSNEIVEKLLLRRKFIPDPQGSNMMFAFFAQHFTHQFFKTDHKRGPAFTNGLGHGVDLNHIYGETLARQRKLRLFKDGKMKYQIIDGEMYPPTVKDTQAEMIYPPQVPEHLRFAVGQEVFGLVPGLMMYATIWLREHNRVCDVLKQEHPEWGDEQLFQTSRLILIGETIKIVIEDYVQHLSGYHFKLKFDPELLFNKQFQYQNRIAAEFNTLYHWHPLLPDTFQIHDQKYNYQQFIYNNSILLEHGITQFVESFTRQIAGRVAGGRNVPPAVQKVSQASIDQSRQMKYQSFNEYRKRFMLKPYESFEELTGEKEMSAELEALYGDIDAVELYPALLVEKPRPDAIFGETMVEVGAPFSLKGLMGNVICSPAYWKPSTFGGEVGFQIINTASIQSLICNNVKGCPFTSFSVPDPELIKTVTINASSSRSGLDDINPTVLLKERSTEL
Method: (§1) Human whole blood provides a protein and cell-rich milieu appropriate for the study of biochemical efficacy of anti-inflammatory compounds such as selective Cox-2 inhibitors. […] This is consistent with the observation that Cox-2 inhibitors have no effect on PGE2 production in normal blood. These inhibitors are active only after incubation of human whole blood with LPS (lipopolysaccharide), which induces Cox-2. This assay can be used to evaluate the inhibitory effect of selective Cox-2 inhibitors on PGE2 production: As well, platelets in whole blood contain a large amount of the Cox-1 enzyme. Immediately following blood clotting, platelets are activated through a thrombin-mediated mechanism. This reaction results in the production of thromboxane B2 (TxB2) via activation of Cox-1. Thus, the effect of test compounds on TxB2 levels levels following blood clotting can be examined and used as an index for Cox-1 activity. Therefore, the degree of selectivity by the test compound can be determined by measuring the levels of PGE2 after LPS induction (Cox-2) and TxB2 following blood clotting (Cox-1) in the same assay.
Fresh blood was collected in heparinized tubes by venipuncture from both male and female volunteers. The subjects had no apparent inflammatory conditions and had not taken any NSAIDs for at least 7 days prior to blood collection. Plasma was immediately obtained from a 2mL blood aliquot to use as blank (basal levels of PGE2). The remaining blood was incubated with LPS (100 µg/ml final concentration, Sigma Chem, #L-2630 from E. coli; diluted in 0.1% BSA-Phosphate buffered saline) for 5 minutes at room temperature. Five hundred µL aliquots of blood were incubated with either 2 µL vehicle (DMSO) or 2 µL of a test compound at final concentrations varying from 10nM to 30µM for 24 hours at 37 °C. At the end of the incubation, the blood was centrifuged at 12,000 x g for 5 minutes to obtain plasma. A 100 µL aliquot of plasma was mixed with 400 µL of methanol for protein precipitation. The supernatant was obtained and was assayed for PGE2 using a radioimmunoassay kit (Amersham, RPA#530) after conversion of PGE2 to its methyl oximate derivative according to the manufacturer's procedure.
(§2) Compounds of the present invention are inhibitors of cyclooxygenase-2 and are thereby useful in the treatment of cyclooxygenase-2 mediated diseases as enumerated above. The activities of the compounds against cyclooxygenase may be seen in the representative results shown below. In the assay, inhibition is determined by measuring the amount of prostaglandin E2 (PGE2) synthesized in the presence of arachidonic acid, cyclooxygenase-1 or cyclooxygenase-2 and a putative inhibitor. The IC50 values represent the concentration of putative inhibitor required to return PGE2 synthesis to 50% of that obtained as compared to the uninhibited control.

Cox-1 = target: T2, Cox-1 (Homo sapiens, UniProt P23219); test: Human whole blood assay, Cox-1 (clotting-induced TxB2 production); assay type: cell-based; details: clotting 1 hour at 37 °C, TxB2 by enzyme immunoassay, read-out: HWB Cox-1 IC50
T2 construct: platelets in whole blood contain a large amount of the Cox-1 enzyme; endogenous in cells; host or cells: platelets in fresh human whole blood, no anticoagulant, clotting for 1 hour at 37 °C
Method: as §1
Fresh blood was collected into vacutainers containing no anticoagulants. Aliquots of 500 µL were immediately transferred to siliconized microcentrifuge tubes preloaded with 2 µL of either DMSO or a test compound at final concentrations varying from 10nM to 30 µM. The tubes were vortexed and incubated at 37 °C for 1 hour to allow blood to clot. At the end of incubation, serum was obtained by centrifugation (12,000 x g for 5 min.). A 100 µL aliquot of serum was mixed with 400 µL of methanol for protein precipitation. The supernatant was obtained and was assayed for TxB2 using a enzyme immunoassay kit (Cayman, #519031) according to the manufacturer's instruction.
as §2

Rat Paw Edema = test: Rat paw edema assay (carrageenan-induced); assay type: in vivo, Male Sprague-Dawley rats; details: po, 1 hr before subplantar carrageenan, paw volume 3 hr later
Method: Male Sprague-Dawley rats (150 - 200 g) were fasted overnight and were given po either vehicle (1% methocel or 5% Tween 80) or a test compound. One hr later, a line was drawn using a permanent marker at the level above the ankle in one hind paw to define the area of the paw to be monitored. The paw volume (V0) was measured using a plethysmometer (Ugo-Basile, Italy) based on the principle of water displacement The animals were then injected subplantarly with 50 µl of 1% carrageenan solution in saline (FMC Corp, Maine) into the paw using an insulin syringe with a 25-gauge needle (i.e. 500 µg carrageenan per paw). Three hr later, the paw volume (V3) was measured and the increases in paw volume (V3 - V0) were calculated. The animals were sacrificed by CO2 aphyxiation and the absence or presence of stomach lesions scored. Data were compared with the vehicle-control values and percent inhibition calculated. Since a maximum of 60-70% inhibition (paw edema) was obtained with standard NSAIDs, ED30 values were used for comparison. All treatment groups were coded to eliminate observer bias.

T2 sequence (P23219 24-599): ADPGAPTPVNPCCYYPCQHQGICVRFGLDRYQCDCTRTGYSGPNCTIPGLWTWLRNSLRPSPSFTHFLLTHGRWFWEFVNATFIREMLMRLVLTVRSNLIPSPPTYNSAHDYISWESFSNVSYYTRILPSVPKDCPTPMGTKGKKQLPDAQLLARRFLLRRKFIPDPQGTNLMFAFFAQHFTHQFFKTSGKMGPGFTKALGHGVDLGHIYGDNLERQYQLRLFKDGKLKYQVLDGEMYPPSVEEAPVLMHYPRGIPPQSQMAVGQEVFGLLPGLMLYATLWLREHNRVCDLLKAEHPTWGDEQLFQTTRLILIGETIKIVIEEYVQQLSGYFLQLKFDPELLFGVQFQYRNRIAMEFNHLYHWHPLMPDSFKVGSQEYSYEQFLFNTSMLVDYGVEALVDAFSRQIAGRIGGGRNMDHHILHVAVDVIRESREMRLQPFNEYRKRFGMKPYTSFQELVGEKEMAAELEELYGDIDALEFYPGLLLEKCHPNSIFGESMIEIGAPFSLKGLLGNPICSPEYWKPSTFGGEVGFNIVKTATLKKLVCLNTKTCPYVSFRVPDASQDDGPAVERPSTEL

| Structure (SMILES) | IC50 (Cox-2) | IC50 (Cox-1) | ED30 (Rat Paw Edema) |
| --- | --- | --- | --- |
| CC1(C)CC(c2ccc(S(C)(=O)=O)cc2)=C(c2ccccc2)C1=O [Example 11, 5,5-Dimethyl-3-(4-(methylsulfonyl)phenyl)-2-phenylcyclopent-2-enone] | 60 nM | 2200 nM | 1.17 mg/kg |
| CS(=O)(=O)c1ccc(C2=C(c3ccccc3)C(=O)OC2(CF)CF)cc1 [Example 14, 5,5-Bisfluoromethyl-3-phenyl-4-(4-(methylsulfonyl)phenyl)-2-(5H)-furanone] | 1100 nM | > 30000 nM | 0.62 mg/kg |
| COc1cccc(C2=C(c3ccc(S(C)(=O)=O)cc3)C(C)(C)OC2=O)c1 [Example 2, 5,5-Dimethyl-3-(3-methoxyphenyl)-4-(4-(methylsulfonyl)phenyl)-2-(5H)-furanone] | 810 nM | > 30000 nM | 0.3 mg/kg |
| CS(=O)(=O)c1ccc(C2=C(c3ccccc3)C(=O)OC23CC3)cc1 [Example 13, 7-(4-(Methylsulfonyl)phenyl)-6-phenyl-4-oxa-spiro[2,4]-hept-6-en-5-one] | 600 nM | > 30000 nM | 0.3 mg/kg |
| CS(=O)(=O)c1ccc(C2=C(c3ccccc3)C(=O)OC23CCCC3)cc1 [Example 10, 4-(4-(Methylsulfonyl)phenyl)-3-phenyl-1-oxa-spiro[4,4]non-3-en-2-one] | 370 nM | 30000 nM | 0.41 mg/kg |
| CC1(C)OC(=O)C(c2ccccc2)=C1c1ccc(S(C)(=O)=O)cc1 [Example 4, 5,5-Dimethyl-4-(4-(methylsulfonyl)phenyl)-3-phenyl-2-(5H)-furanone] | 170 nM | > 30000 nM | 0.26 mg/kg |
